Source: ChEMBL document CHEMBL1201862, “PubChem BioAssay data set” (2004)
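Dose response: 5 concentrations. Exposure: 48 h. Format: 96-well plates. Endpoint: linear interpolation; highest concentration if not reached. GI50 marks 50% less growth.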 Calls of active or inactive are those of the source. Rule as the data show it: active = GI50 up to about 1.1 µM and inactive = higher.

Legend:
Experiment in all cases: inhibition of tumour cell growth, NCI panel, 48 h
[1] = tested on: MCF7
[2] = tested on: Hs-578T
[3] = tested on: SF-539
[4] = tested on: COLO 205
[5] = tested on: SF-268
[6] = tested on: OVCAR-8
[7] = tested on: PC-3
[8] = tested on: NCI-H226
[9] = tested on: SW-620
[10] = tested on: NCI/ADR-RES
[11] = tested on: UO-31
[12] = tested on: UACC-62
[13] = tested on: NCI-H23
[14] = tested on: SK-MEL-2
[15] = tested on: A498
[16] = tested on: A549
[17] = tested on: HL-60
[18] = tested on: KM12
[19] = tested on: HOP-92
[20] = tested on: HCC 2998

Measured: GI50

CC(=O)C1COC(O)C1C (stereo not given)
inactive: [1] 20.7 µM | [2] 24.1 µM | [3] 17.5 µM | [4] 17 µM | [5] 17.3 µM | [6] 19.5 µM | [7] 20 µM | [8] 21.4 µM | [9] 18 µM | [10] 18.5 µM | [11] 17.7 µM | [12] 14 µM | [13] 16.1 µM | [14] 15.3 µM | [15] 56.2 µM | [16] 53.8 µM | [17] 12.4 µM | [18] 13.6 µM | [19] 27.2 µM

O=C1CS(=O)(=O)C(c2cccc(Oc3ccccc3)c2)N1C1CC1 (stereo not given)
inactive: [1] 22.8 µM | [2] > 100 µM | [3] 50.9 µM | [4] 25.2 µM | [5] 64.7 µM | [6] 38.5 µM | [7] 25.8 µM | [8] 26.9 µM | [9] 60.5 µM | [10] 28.1 µM | [11] 27.6 µM | [12] 31.6 µM | [13] 28 µM | [14] 45.1 µM | [20] 44 µM | [16] 35.6 µM | [17] 30.8 µM | [18] 31.4 µM | [19] 23.4 µM

O=c1[nH]nc(Cc2ccccc2)n1N=C1CCCCC1
inactive: [1] > 100 µM | [2] > 100 µM | [4] > 100 µM | [5] > 100 µM | [6] > 100 µM | [7] > 100 µM | [8] > 100 µM | [9] > 100 µM | [10] > 100 µM | [11] > 100 µM | [12] > 100 µM | [13] > 100 µM | [14] > 100 µM | [15] > 100 µM | [16] > 100 µM | [17] > 100 µM | [18] > 100 µM | [19] > 100 µM

Cc1nc2c(=O)[nH]c(=O)nc-2n(CCO)c1C
inactive: [1] > 100 µM | [2] > 100 µM | [3] > 100 µM | [4] > 100 µM | [5] > 100 µM | [6] > 100 µM | [7] > 100 µM | [8] > 100 µM | [9] > 100 µM | [10] > 100 µM | [11] > 100 µM | [12] > 100 µM | [13] > 100 µM | [14] > 100 µM | [20] > 100 µM | [15] > 100 µM | [16] > 100 µM | [18] > 100 µM | [19] > 100 µM

O=C(O)CN1CCN2CCOCCOCCN(CC1)CCN(CC(=O)O)CC2
inactive: [1] > 100 µM | [2] > 100 µM | [3] > 100 µM | [4] > 100 µM | [6] > 100 µM | [7] > 100 µM | [8] > 100 µM | [9] > 100 µM | [10] > 100 µM | [11] > 100 µM | [12] > 100 µM | [14] > 100 µM | [15] > 100 µM | [16] > 100 µM | [18] > 100 µM | [19] > 100 µM

c1c[nH]c(CN2CCOCC2)n1
inactive: [1] > 100 µM | [2] > 100 µM | [3] > 100 µM | [4] > 100 µM | [5] > 100 µM | [6] > 100 µM | [7] > 100 µM | [8] > 100 µM | [9] > 100 µM | [10] > 100 µM | [11] > 100 µM | [12] > 100 µM | [13] > 100 µM | [14] > 100 µM | [15] > 100 µM | [16] > 100 µM | [17] > 100 µM | [18] > 100 µM | [19] > 100 µM

COc1nc(C#CC2CCCCC2)nc(OC)n1
inactive: [1] 2.14 µM | [2] 3.58 µM | [3] 2.45 µM | [4] 6.1 µM | [5] 4.07 µM | [6] 1.61 µM | [7] 4.21 µM | [9] 3.3 µM | [10] 1.64 µM | [11] 2.54 µM | [12] 1.28 µM | [13] 1.45 µM | [14] 3.81 µM | [15] 21.4 µM | [16] 3.95 µM | [17] 1.12 µM | [18] 4.76 µM

COc1ccc(/C(Cl)=C(\C=O)c2ccc([N+](=O)[O-])cc2)cc1OC
inactive: [1] 3.72 µM | [2] 5.69 µM | [3] 12.5 µM | [4] 14.2 µM | [5] 6.73 µM | [6] 7.64 µM | [7] 8.71 µM | [8] 11.4 µM | [9] 6.12 µM | [10] 6.38 µM | [11] 12.2 µM | [12] 3.92 µM | [13] 4.26 µM | [14] 21 µM | [15] 20.5 µM | [16] 24.7 µM | [17] 2.7 µM | [18] 20.4 µM | [19] 7.28 µM

O=C1CC(C(=O)O)Cc2c(Br)ccc(O)c21 (stereo not given)
inactive: [1] > 100 µM | [2] > 100 µM | [4] > 100 µM | [5] > 100 µM | [6] > 100 µM | [7] > 100 µM | [8] 95.9 µM | [10] > 100 µM | [11] > 100 µM | [12] > 100 µM | [13] > 100 µM | [14] > 100 µM | [20] > 100 µM | [16] > 100 µM | [17] > 100 µM | [18] > 100 µM | [19] 29 µM

Cc1ccc(/C=C2\CN(C)CC3C2=NN(c2ccccc2)C3c2ccc(C)cc2)cc1 (stereo not given)
inactive: [1] > 100 µM | [2] > 100 µM | [4] > 100 µM | [5] > 100 µM | [6] > 100 µM | [7] 38.9 µM | [8] > 100 µM | [9] > 100 µM | [10] > 100 µM | [11] > 100 µM | [12] > 100 µM | [13] > 100 µM | [14] 29.4 µM | [20] > 100 µM | [15] 35.3 µM | [16] > 100 µM | [18] > 100 µM | [19] > 100 µM

COCOc1cc(OC)ccc1C/C=N/O
inactive: [1] > 100 µM | [2] > 100 µM | [3] > 100 µM | [4] > 100 µM | [5] > 100 µM | [6] > 100 µM | [7] > 100 µM | [8] > 100 µM | [9] > 100 µM | [10] > 100 µM | [11] > 100 µM | [12] > 100 µM | [13] > 100 µM | [14] > 100 µM | [20] > 100 µM | [16] > 100 µM | [17] > 100 µM | [18] > 100 µM | [19] > 100 µM
